Values joined by “and” are separate entries in the source; they are usually repeats but may differ in a detail not shown here. Equal values may be shown once. Where a name gives a salt, the structure may show the parent alone. Read-outs that look alike come from different tables or passages of the source.
Key:
PC-9 cells = test: PC-9 growth inhibition assay (cell proliferation, CellTiter-Glo, 72 h); format: cell-based, human; conditions: Homo sapiens, PC-9, 72 h, cellular proliferation, PC9 cells, single mutant EGFR, read-out: PC9 IC50 (nM) SM
Description: (§1) Then incubate the flasks at 37° C. until the cells detach.
(§2) Test compounds were dissolved in DMSO at 30 mM.
(§3) The final concentration was 1,000 cells/well. Add medium only as low control.
(§4) After 72 hours incubation, remove the plates from incubator and equilibrate at room temperature for 15 minutes. Incubate the CellTiter Glo reagents (Promega, G9243) at 37° C. before the experiment. The buffer was equilibrated to room temperature and used to dissolve the substrate. To determine the cell viability, add 40 μL of CellTiter-Glo reagent into each well to be detected (at 1:1 to culture medium). Then the place the plates at room temperature for 30 min followed by read on EnSpire (PerkinElmer).
(§5) For estimation of IC50, the luminescence readout are transformed to % Inhibition by applying the following equation:

H1975 cells = test: H1975 inhibition assay (cell proliferation, CellTiter-Glo, 72 h); format: cell-based, human; conditions: Homo sapiens, NCI-H1975, 72 h, cellular proliferation, double mutant EGFR, read-out: NCI-H1975 IC50 (nM) DM
Description: H1975 Inhibition Assay (Cell Proliferation).
as §2, §3, §4, §5

A431 cells = test: A431 inhibition assay (cell proliferation, CellTiter-Glo, 72 h); format: cell-based, human; conditions: Homo sapiens, A-431, 72 h, cellular proliferation, wild type EGFR, read-out: A431 IC50 (nM) WT
Description: as §1, §2, §3, §4, §5

[1] = biological target: T1, Exon 19 deletion EGFR (activating single mutant) in PC-9 cells (Homo sapiens, UniProt P00533, DEL746-750); test: Exon 19 deletion EGFR PC-9 cellular autophosphorylation assay (p-EGFR ELISA); format: cell-based; conditions: PC9, 2 h treatment, read-out: SM (PC9) IC50
T1 construct: cellular phosphorylation of endogenous p-EGFR; host or cells: PC9 (PC-9) human lung cell line
Description: The human lung cell line PC9 (Exon 19 deletion EGFR) were obtained from the American type Culture Collection. […] Cells were grown in a humidified incubator at 37° C. with 5% CO2, Assays to measure cellular phosphorylation of endogenous p-EGFR in cell Iysates were carried out according to the protocol described in the R&D Systems DuoSet IC Human Phospho-EGF R ELISA (R&D Systems catalogue number # DYCI095). 40 μL of cells were seeded (10000 cells/well) in growth medium in Coming black, clear-bottomed 384-well plates and incubated at 37° C. with 5% CO2 overnight. […] Plates were incubated for a further 2 h, then following aspiration of medium, 40 μL× lysis buffer is added to each well. Greiner black high bind 384 well plates were coated with capture antibody and then blocked with 3% BSA. Following removal of block, 15 μL of lysate are transferred to the Greiner black high bind 384 well plates and incubated for 2 hours. Following aspiration and washing of the plates with PBS, 20 μL of detection antibody were added and incubated for 2 hours. […] The data obtained with each compound are exported into a suitable software package (such as Origin) to perform curve fitting analysis.

[2] = biological target: T2, L858R/T790M double mutant EGFR in H1975 cells (Homo sapiens, UniProt P00533, L858R/T790M); test: L858R/T790M double mutant H1975 autophosphorylation inhibition assay (ELISA); format: cell-based; conditions: cellular EGFR autophosphorylation, H1975, 2 h treatment; read-out: DM (H1975) IC50
T2 construct: endogenous in cells; host or cells: H1975 cells

[3] = biological target: hERG channel (HEK 293 cell line stably expressing hERG channel) (Homo sapiens, UniProt Q12809); test: cell-based
[4] = biological target: Wild type EGFR in A431 cells (Homo sapiens, UniProt P00533); conditions: WT (A431) IC50 nM, cellular EGFR autophosphorylation, A431, 2 h treatment then EGF stimulation 10 min
Mouse in vivo PK study [5] = conditions: male CD1 mice, 1 mg/kg IV; for F: 10 mg/kg PO; for AUC / clearance / half-life: mouse, plasma; for half-life: read-out: T1/2 (IV) (converted)
Description: To determine the drug concentration in plasma of the compounds of the present disclosure following intravenous and oral administration in male CD 1 Mice, pharmacokinetic profile and PK parameters were obtained.
Test animals: healthy male CD1 mice (body weight 20-30 g, 18 mice, free access to food and water), provided by Sibeifu laboratory. […]
Samples collection: the healthy animals were used, weighed the bodyweight and marked at tail and cage card prior to dosing. Blood samples (0.03 mL per time point) were collected from dorsal metatarsal vein at 0.083, 0.25, 0.5, 1, 2, 4, 8, 24 h post dose for IV group and at 0.25, 0.5, 1, 2, 4, 8, 24 h post dose for PO group, the terminal time point was collected from heart (˜0.3 mL). The blood samples were put into the tube with heparin-Na coated and then put on the cold box, centrifuged at 4° C. 4000 g, 5 minutes immediately after collecting all samples per time point to get plasma. The plasma samples were stored in a freezer at −75±15° C. prior to analysis.
The drug concentration was determined by LC/MS/MS method, and the PK parameters were observed as follows.

Mouse in vivo PK study [6] = conditions: mouse, plasma, male CD1 mice, 10 mg/kg PO; for half-life: read-out: T1/2 (PO) (converted)

T2 sequence (P00533 25-1210 T790M/L858R): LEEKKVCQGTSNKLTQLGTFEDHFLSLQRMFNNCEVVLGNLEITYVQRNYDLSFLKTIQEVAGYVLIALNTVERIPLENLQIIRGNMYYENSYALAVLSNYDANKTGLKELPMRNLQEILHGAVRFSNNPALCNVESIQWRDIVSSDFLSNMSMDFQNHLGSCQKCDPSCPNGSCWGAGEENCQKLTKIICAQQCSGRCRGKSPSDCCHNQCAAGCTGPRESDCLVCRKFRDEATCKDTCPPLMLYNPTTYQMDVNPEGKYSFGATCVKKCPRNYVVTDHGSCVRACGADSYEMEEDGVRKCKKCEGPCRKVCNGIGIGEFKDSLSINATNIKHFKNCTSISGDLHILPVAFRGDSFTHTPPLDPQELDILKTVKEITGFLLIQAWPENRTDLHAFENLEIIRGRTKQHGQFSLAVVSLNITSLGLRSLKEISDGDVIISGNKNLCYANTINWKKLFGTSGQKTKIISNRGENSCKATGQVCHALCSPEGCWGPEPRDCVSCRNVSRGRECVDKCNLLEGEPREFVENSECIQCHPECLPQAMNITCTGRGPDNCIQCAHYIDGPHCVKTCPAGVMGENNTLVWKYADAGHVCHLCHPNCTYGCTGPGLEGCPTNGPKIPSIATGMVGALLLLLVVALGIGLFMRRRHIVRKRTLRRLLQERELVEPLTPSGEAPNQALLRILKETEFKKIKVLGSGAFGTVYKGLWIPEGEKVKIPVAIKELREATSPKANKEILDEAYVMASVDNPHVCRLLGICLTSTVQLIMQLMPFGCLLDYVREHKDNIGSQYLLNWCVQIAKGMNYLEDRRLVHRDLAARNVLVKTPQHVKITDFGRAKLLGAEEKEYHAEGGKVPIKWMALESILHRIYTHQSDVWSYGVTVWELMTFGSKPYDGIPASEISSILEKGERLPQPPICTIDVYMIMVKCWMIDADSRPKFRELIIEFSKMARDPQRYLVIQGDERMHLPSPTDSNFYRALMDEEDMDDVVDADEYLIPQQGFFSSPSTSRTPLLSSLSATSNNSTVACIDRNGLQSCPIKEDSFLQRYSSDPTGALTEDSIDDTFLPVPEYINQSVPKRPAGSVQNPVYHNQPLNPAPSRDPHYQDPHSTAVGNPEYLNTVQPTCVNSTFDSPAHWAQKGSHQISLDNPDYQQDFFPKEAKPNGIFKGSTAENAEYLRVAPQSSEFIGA
T1 sequence (P00533 with tags, fused parts or gaps DEL746-750): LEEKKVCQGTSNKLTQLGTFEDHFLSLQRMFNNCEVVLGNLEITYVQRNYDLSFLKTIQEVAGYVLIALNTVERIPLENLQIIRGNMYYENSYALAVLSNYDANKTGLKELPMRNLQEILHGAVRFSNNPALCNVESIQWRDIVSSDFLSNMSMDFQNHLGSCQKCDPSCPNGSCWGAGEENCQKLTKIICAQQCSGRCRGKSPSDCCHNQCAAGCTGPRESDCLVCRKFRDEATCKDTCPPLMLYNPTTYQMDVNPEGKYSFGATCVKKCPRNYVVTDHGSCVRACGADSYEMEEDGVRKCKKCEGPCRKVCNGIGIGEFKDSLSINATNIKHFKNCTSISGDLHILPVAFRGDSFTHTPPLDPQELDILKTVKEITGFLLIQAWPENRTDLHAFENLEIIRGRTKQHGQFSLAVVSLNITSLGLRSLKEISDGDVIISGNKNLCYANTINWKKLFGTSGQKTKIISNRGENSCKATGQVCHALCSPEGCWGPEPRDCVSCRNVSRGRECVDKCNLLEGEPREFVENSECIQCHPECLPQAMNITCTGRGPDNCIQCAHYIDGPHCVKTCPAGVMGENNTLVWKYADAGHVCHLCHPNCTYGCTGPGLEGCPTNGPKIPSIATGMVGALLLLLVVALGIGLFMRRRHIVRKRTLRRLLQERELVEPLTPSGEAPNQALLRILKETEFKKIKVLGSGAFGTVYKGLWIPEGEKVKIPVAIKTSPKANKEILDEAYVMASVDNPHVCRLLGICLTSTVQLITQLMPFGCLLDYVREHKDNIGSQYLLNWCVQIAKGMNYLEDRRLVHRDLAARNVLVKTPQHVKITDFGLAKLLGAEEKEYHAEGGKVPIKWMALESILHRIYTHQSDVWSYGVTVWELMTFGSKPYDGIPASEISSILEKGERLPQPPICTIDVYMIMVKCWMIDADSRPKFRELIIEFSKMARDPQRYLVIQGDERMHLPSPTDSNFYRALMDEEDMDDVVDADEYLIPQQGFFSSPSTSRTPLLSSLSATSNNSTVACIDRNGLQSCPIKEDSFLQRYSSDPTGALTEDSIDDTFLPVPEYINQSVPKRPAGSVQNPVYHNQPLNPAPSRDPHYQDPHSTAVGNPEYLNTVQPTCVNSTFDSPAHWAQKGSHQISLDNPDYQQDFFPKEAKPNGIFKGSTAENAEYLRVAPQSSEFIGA
Chain of Wild type EGFR in A431 cells (P00533 25-1210): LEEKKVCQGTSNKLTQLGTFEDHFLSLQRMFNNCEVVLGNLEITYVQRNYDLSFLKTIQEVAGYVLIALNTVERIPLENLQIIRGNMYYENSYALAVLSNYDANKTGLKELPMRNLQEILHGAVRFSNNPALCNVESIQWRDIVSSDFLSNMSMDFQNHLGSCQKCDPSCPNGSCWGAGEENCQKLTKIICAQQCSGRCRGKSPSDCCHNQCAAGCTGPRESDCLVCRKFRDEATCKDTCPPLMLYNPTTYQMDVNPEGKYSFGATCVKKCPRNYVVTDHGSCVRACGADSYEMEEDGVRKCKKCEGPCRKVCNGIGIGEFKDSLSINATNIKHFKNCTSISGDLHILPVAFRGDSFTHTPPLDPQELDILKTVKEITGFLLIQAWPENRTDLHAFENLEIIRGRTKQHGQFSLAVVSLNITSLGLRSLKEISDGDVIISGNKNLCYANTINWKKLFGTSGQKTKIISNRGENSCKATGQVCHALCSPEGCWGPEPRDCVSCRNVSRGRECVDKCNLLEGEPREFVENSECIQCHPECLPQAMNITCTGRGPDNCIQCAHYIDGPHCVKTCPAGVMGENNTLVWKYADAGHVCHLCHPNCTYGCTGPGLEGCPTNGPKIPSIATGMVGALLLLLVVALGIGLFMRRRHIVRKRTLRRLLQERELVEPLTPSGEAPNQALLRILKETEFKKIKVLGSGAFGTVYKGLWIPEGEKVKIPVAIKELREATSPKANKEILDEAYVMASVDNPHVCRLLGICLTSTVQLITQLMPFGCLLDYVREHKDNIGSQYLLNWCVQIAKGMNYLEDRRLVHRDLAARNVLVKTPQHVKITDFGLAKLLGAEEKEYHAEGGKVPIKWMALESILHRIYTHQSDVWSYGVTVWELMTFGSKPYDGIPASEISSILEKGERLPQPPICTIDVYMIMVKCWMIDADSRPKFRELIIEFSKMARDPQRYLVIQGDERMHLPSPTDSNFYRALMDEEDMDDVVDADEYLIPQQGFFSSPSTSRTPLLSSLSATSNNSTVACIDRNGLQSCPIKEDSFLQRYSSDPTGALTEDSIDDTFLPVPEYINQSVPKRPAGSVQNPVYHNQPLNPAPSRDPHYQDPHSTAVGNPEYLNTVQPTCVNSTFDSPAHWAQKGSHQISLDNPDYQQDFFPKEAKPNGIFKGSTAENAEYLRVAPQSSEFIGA
Chain of hERG channel (HEK 293 cell line stably expressing hERG channel) (Q12809 whole entry): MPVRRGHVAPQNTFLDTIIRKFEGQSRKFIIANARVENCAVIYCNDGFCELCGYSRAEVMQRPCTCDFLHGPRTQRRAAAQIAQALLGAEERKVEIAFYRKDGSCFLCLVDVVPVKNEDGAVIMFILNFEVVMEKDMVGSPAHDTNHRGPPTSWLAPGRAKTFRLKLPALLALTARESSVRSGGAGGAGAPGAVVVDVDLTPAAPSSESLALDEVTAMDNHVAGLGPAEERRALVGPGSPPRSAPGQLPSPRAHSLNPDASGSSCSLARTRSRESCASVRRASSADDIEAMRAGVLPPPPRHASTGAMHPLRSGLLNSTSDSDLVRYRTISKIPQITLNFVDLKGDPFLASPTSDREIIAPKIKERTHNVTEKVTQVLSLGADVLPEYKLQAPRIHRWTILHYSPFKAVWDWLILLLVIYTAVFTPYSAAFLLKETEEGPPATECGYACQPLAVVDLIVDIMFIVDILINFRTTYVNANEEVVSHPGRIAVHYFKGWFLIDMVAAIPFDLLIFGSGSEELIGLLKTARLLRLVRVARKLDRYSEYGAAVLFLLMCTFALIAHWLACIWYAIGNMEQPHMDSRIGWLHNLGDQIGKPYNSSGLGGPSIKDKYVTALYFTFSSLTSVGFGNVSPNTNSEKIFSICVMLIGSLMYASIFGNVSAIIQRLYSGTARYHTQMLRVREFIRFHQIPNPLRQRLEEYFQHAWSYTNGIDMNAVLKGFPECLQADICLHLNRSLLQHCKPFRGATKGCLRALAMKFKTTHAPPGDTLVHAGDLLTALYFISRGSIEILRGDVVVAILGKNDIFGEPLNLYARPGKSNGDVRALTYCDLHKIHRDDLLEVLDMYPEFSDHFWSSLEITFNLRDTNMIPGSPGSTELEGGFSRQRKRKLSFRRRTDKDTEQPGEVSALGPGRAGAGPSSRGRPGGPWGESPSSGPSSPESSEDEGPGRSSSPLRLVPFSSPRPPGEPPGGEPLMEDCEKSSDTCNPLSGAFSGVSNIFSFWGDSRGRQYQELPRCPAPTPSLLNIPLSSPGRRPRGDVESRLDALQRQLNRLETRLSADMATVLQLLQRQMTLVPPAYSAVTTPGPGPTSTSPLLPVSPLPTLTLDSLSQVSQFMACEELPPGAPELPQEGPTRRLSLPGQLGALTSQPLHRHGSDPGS

Structure (SMILES)	IC50 (PC-9 cells)	IC50 (H1975 cells)	IC50 (A431 cells)	IC50 [1]	IC50 [2]	IC50 [3]	IC50 [4]	F (Mouse in vivo PK study [5])	AUC (Mouse in vivo PK study [5])	clearance (Mouse in vivo PK study [5])	half-life (Mouse in vivo PK study [5])	AUC (Mouse in vivo PK study [6])	Cmax (Mouse in vivo PK study [6])	half-life (Mouse in vivo PK study [6])
C=CC(=O)Nc1cc(Nc2nccc(-n3nc(N(C)C)c4cnc(C)cc43)n2)c(OC)cc1N(C)CCN(C)C [Example 1, N-(5-((4-(3-(Dimethylamino)-6-methyl-1H-pyrazolo[4,3-c]pyridin-1-yl)pyrimidin-2-yl)amino)-2-((2-(dimethylamino)ethyl)(methyl)amino)-4-methoxyphenyl)acrylamide]	9.24 nM	11.4 nM	2140 nM											
C=CC(=O)Nc1cc(Nc2nccc(-c3cc4c(C)c[nH]c4c(C#N)n3)n2)c(OC)cc1N(C)CCN(C)C [Example 3, N-(5-((4-(7-Cyano-3-methyl-1H-pyrrolo[2,3-c]pyridin-5-yl)pyrimidin-2-yl)amino)-2-((2-(dimethylamino)ethyl)(methyl)amino)-4-methoxyphenyl)acryl amide]	4.15 nM	4.38 nM	1380 nM	5.15 nM	2.16 nM	858 nM	63.1 nM							
C=CC(=O)Nc1cc(Nc2nccc(-n3nc(OC)c4ccccc43)n2)c(OC)cc1N(C)CCN(C)C [Example 8, N-(2-((2-(Dimethylamino)ethyl)(methyl)amino)-4-methoxy-5-((4-(3-methoxy-1H-indazol-1-yl)pyrimidin-2-yl)amino)phenyl)acrylamide]	18.6 nM	11.6 nM	1800 nM	27.6 nM and 29.4 nM	20.7 nM and 38.8 nM	2230 nM	327 nM and 464 nM							
C=CC(=O)Nc1cc(Nc2nccc(-c3cc(C#N)cc4c3cnn4C)n2)c(OC)cc1N(C)CCN(C)C [Example 9, N-(5-((4-(6-Cyano-1-methyl-1H-indazol-4-yl)pyrimidin-2-yl)amino)-2-((2-(dimethylamino)ethyl)(methyl)amino)-4-methoxyphenyl)acrylamide]	7.67 nM	3.05 nM	2200 nM	10.8 nM	5.71 nM	1010 nM	140 nM	23.1%	249 ng·h/mL	67 mL/min/kg	0.53 h	719 ng·h/mL	159 ng/mL	3.55 h
C=CC(=O)Nc1cc(Nc2nccc(-c3cccc4c3cnn4C)n2)c(OC)cc1N(C)CCN(C)C [Example 10, N-(2-((2-(Dimethylamino)ethyl)(methyl)amino)-4-methoxy-5-((4-(1-methyl-1H-indazol-4-yl)pyrimidin-2-yl)amino)phenyl)acrylamide]	16.5 nM	12.7 nM	695 nM											
C=CC(=O)Nc1cc(Nc2nccc(-c3cnc4c(c3)c(C)cn4C)n2)c(OC)cc1N(C)CCN(C)C [Example 11, N-(5-((4-(1,3-Dimethyl-1H-pyrrolo[2,3-b]pyridin-5-yl)pyrimidin-2-yl)amino)-2-((2-(dimethylamino)ethyl)(methyl)amino)-4-methoxyphenyl) acrylamide]	7.73 nM	6.51 nM	2530 nM			5780 nM		29.3%	153 ng·h/mL	114 mL/min/kg	1.1 h	641 ng·h/mL	97 ng/mL	5.06 h
C=CC(=O)Nc1cc(Nc2nccc(-c3ccc4c(c3)c(C)cn4C)n2)c(OC)cc1N(C)CCN(C)C [Example 12, N-(5-((4-(1,3-Dimethyl-1H-indol-5-yl)pyrimidin-2-yl)amino)-2-((2-(dimethylamino)ethyl)(methyl)amino)-4-methoxyphenyl)acrylamide]	19.1 nM	16.8 nM	2430 nM	11.8 nM	7.73 nM	4080 nM	63.6 nM							
C=CC(=O)Nc1cc(Nc2nccc(-c3cnc4c(c3)c(Cl)cn4C)n2)c(OC)cc1N(C)CCN(C)C [Example 13, N-(5-((4-(3-Chloro-1-methyl-1H-pyrrolo[2,3-b]pyridin-5-yl)pyrimidin-2-yl)amino)-2-((2-(dimethylamino)ethyl)(methyl)amino)-4-methoxyphenyl)acrylamide]	4.64 nM	2.98 nM				1650 nM		17.3%	169 ng·h/mL	99 mL/min/kg	1.52 h	486 ng·h/mL	63.5 ng/mL	6.1 h
C=CC(=O)Nc1cc(Nc2nccc(-n3nc(NCC)c4ncccc43)n2)c(OC(F)F)cc1N(C)CCN(C)C [Example 20, N-(4-(Difluoromethoxy)-2-((2-(dimethylamino)ethyl)(methyl)amino)-5-((4-(3-(ethylamino)-1H-pyrazolo[4,3-b]pyridin-1-yl)pyrimidin-2-yl)amino)phenyl)acrylamide]	0.91 nM	1.08 nM	97.6 nM	1.38 nM	1.07 nM	500 nM	19 nM							
C=CC(=O)Nc1cc(Nc2nccc(-n3nc(NC)c4ccsc43)n2)c(OC)cc1N(C)CCN(C)C [Example 23, N-(2-((2-(dimethylamino)ethyl)(methyl)amino)-4-methoxy-5-((4-(3-(methylamino)-1H-thieno[2,3-c]pyrazol-1-yl)pyrimidin-2-yl)amino)phenyl)acrylamide]	3.87 nM	7.35 nM	566 nM											
C=CC(=O)Nc1cc(Nc2nccc(-n3nc(NC)c4cc(Cl)sc43)n2)c(OC)cc1N(C)CCN(C)C [Example 24, N-(5-((4-(5-chloro-3-(methylamino)-1H-thieno[2,3-c]pyrazol-1-yl)pyrimidin-2-yl)amino)-2-((2-(dimethylamino)ethyl)(methyl)amino)-4-methoxyphenyl)acrylamide]	1.57 nM	2.43 nM	217 nM											
C=CC(=O)Nc1cc(Nc2nccc(-c3cccc4c3ccn4C)n2)c(OC)cc1N(C)CCN(C)C [Example 25, N-(2-((2-(dimethylamino)ethyl)(methyl)amino)-4-methoxy-5-((4-(1-methyl-1H-indol-4-yl)pyrimidin-2-yl)amino)phenyl)acrylamide]	16.2 nM	12.6 nM	1130 nM											
[2H]C([2H])([2H])N(CCN(C)c1cc(OC)c(Nc2nccc(-c3cc(C#N)c4c(c3)c(C)cn4C)n2)cc1NC(=O)C=C)C([2H])([2H])[2H] [Example 27, N-(2-((2-(Bis(methyl-d3)amino)ethyl)(methyl)amino)-5-((4-(7-cyano-1,3-dimethyl-1H-indol-5-yl)pyrimidin-2-yl)amino)-4-methoxyphenyl)acrylamide mesylate]		2.26 nM						31.4%	297 ng·h/mL	60.7 mL/min/kg	1.76 h	1040 ng·h/mL	99 ng/mL	3.65 h
C=CC(=O)Nc1cc(Nc2nccc(-c3cc(C#N)c4c(c3)c(C)cn4C)n2)c(OC)cc1NCCN(C)C [Example 28, N-(5-((4-(7-cyano-1,3-dimethyl-1H-indol-5-yl)pyrimidin-2-yl)amino)-2-((2-(dimethylamino)ethyl)amino)-4-methoxyphenyl)acrylamide]	81.4 nM	13.6 nM	912 nM											
C=CC(=O)Nc1cc(Nc2nccc(-c3cc(C#N)c4c(c3)c(C)cn4C)n2)c(OC)cc1N(C)CCNC [Example 29, N-(5-((4-(7-Cyano-1,3-dimethyl-1H-indol-5-yl)pyrimidin-2-yl)amino)-4-methoxy-2-(methyl(2-(methylamino)ethyl)amino)phenyl)acrylamide]	51.9 nM	23.6 nM	1370 nM											
